Results from ChEMBL document CHEMBL1201862, “PubChem BioAssay data set” (2004).
Calls of active or inactive are those of the source.

Experiments:
[1] = molecular target: T1, Short transient receptor potential channel 4 (Mus musculus, UniProt Q9QUQ5); experiment: block of DAMGO-driven TRPC4 calcium entry – cell-based, HEK293 TRPC4/mu-opioid, Fluo-4 calcium, dose response (AID 434942); format: functional;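 also: potency of inhibitors blocking the TRPC4 calcium response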
T1 sequence (Q9QUQ5 whole entry): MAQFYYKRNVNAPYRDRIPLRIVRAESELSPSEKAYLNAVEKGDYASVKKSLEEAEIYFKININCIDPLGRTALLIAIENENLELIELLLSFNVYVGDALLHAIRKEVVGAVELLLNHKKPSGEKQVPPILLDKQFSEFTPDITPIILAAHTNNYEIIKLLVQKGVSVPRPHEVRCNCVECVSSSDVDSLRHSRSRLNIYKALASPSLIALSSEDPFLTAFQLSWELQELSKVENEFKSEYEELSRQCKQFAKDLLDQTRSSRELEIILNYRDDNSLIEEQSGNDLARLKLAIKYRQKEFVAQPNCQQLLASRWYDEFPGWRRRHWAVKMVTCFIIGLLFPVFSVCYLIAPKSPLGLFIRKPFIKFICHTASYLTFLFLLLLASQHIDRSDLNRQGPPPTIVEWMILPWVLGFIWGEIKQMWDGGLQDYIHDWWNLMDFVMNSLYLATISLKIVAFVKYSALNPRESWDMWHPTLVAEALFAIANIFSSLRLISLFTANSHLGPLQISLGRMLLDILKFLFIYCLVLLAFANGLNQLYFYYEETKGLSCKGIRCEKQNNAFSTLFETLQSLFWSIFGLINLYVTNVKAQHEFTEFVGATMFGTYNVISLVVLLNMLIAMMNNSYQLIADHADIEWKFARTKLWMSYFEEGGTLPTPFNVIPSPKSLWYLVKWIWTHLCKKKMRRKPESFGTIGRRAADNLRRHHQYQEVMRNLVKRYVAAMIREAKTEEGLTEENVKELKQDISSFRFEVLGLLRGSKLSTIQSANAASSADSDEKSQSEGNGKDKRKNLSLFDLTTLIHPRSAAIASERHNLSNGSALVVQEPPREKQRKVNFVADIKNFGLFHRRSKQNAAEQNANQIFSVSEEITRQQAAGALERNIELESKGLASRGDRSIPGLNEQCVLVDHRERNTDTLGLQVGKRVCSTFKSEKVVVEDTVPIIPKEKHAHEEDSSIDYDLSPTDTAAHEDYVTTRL

[2] = molecular target: T2, High affinity choline transporter 1 (Homo sapiens, UniProt Q9GZV3); experiment: human choline transporter blockers, potency – cell-based, 5-point CRC, membrane potential dye, dose response (AID 504840); format: functional
T2 sequence (Q9GZV3 whole entry): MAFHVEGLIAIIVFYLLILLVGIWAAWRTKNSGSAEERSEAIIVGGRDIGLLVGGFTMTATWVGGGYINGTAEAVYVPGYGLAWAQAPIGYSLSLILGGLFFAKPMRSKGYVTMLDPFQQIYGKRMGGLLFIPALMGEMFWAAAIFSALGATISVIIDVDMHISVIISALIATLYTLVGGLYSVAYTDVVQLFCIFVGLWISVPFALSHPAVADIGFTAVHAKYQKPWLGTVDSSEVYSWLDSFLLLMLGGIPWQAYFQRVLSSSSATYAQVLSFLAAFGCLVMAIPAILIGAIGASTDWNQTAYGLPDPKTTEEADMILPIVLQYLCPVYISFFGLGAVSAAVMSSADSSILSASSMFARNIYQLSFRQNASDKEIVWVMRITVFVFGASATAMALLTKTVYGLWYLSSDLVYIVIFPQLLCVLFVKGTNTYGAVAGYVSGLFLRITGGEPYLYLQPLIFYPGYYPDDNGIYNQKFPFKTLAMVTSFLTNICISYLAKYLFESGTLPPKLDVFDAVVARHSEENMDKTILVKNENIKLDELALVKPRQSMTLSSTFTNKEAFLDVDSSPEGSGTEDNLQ

Leucine aminopeptidase = molecular target: T3, Leucine aminopeptidase (Plasmodium falciparum 3D7, UniProt Q8IL11); experiment: P. falciparum M17LAP inhibitors, primary screen, biochemical, fluorogenic H-Leu-NHMec substrate, 1536-well (AID 1619); format: functional
T3 sequence (Q8IL11 whole entry): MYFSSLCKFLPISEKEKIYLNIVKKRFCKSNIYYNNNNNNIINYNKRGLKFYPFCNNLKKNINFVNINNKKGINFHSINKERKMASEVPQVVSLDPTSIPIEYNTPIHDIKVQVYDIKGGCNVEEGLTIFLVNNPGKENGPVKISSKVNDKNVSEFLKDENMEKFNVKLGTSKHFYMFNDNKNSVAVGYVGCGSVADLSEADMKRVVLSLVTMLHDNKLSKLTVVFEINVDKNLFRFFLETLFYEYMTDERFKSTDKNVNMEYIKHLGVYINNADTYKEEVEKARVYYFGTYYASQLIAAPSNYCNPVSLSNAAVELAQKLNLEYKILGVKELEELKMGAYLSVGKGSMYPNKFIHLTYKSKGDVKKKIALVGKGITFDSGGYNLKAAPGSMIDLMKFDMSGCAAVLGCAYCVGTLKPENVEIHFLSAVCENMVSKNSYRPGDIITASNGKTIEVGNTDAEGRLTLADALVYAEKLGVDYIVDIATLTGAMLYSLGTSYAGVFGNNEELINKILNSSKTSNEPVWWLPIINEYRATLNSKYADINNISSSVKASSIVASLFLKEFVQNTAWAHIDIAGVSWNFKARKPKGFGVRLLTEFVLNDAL

[3] = microbe, parasite or virus in culture; format: functional; conditions: Mycobacterium tuberculosis
[4] = molecular target: T4, Polyadenylate-binding protein 1 (Homo sapiens, UniProt P11940); experiment: MLLE binding blockers, Cy5 peptide tracer – biochemical, fluorescence polarization, Cy5-PAM2 peptide, secondary, miRNA deadenylation inhibitor project, dose response (AID 602260); format: functional; conditions: read-out: IC50_Mean
[5] = molecular target: T4, Polyadenylate-binding protein 1; experiment: MLLE domain peptide-binding blockers, IC50 – biochemical, fluorescence polarization, FITC-PAM2 peptide, dose response (AID 602259); format: functional; conditions: read-out: IC50_Mean
[6] = viability of uninfected HEp-2 cells – cell-based, HTS, cytotoxicity control for RSV inhibitor project, dose response (AID 2410); format: functional; conditions: human respiratory syncytial virus
[7] = HEK-293T cell viability reduction – luminescence, B-cell screen hits, cytotoxicity control for BCR NF-kB inhibitor project, dose response (AID 489021); format: functional, cell-based;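 also: HEK-293T cells carrying an NF-kB luciferase reporter; cells exposed to compound for about 14 hours before viability readout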
[8] = luciferase reporter signal suppression in cells – H4 neuroglioma cells, luminescence, dose response (AID 1990); format: functional, cell-based
[9] = Luminescence Cell-Based Dose Response HTS to Identify Inhibitors of 5'UTR Stem-Loop Driven Prion Protein mRNA Translation in H4 Neuroglioblastoma Cells. [Related pubchem assays: 1827 (Project Summary), 1813 (Primary HTS)]; format: functional
[10] = alpha-synuclein stem-loop luciferase translation blockers – H4 neuroglioma cells, luminescence, confirmation (AID 1988); format: functional, cell-based
[11] = molecular target: T5, Microphthalmia-associated transcription factor (Homo sapiens, UniProt O75030); experiment: reducers of TRPM1 reporter luminescence, concentration series – cell-based, SK-MEL-5, cherry-picked, set 3, MITF inhibitor project, dose response (AID 493073); format: functional;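 also: SK-MEL-5 melanoma cells with luciferase driven by the MITF target TRPM1 promoter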
T5 sequence (O75030 whole entry): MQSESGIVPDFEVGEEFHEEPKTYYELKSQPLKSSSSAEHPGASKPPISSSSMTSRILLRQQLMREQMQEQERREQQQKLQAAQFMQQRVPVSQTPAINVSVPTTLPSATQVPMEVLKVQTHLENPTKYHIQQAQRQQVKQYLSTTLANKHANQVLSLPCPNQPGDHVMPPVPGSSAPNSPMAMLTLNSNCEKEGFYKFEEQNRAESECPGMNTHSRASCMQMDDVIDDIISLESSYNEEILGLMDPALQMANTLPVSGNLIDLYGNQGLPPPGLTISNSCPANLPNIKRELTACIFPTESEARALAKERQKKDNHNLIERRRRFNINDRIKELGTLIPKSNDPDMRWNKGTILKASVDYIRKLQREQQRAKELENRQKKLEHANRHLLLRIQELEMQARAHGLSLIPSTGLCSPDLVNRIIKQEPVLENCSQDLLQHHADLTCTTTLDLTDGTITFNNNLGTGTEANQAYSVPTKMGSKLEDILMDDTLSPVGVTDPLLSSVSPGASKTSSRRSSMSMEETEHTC

Streptokinase A = molecular target: T6, Streptokinase A (Streptococcus pyogenes serotype M1, UniProt P10520); experiment: viability-normalized secreted streptokinase activity reduction – plasminogen activation absorbance, OD405, dose response (AID 1914); format: functional, Streptococcus pyogenes M1 GAS;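 also: secreted streptokinase activity via plasminogen activation per viability signal from cell pellet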
T6 sequence (P10520 whole entry): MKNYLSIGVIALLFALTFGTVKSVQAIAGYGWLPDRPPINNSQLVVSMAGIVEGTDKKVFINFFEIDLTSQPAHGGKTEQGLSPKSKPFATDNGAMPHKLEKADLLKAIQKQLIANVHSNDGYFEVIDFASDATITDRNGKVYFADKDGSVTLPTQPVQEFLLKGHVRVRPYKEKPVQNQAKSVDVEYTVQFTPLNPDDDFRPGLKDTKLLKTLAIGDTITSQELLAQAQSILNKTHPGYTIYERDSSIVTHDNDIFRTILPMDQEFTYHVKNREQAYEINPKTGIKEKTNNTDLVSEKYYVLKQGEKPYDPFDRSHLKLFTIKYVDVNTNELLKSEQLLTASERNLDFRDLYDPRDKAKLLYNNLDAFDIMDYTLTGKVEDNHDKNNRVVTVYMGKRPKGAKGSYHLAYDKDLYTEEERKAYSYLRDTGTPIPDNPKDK

[12] = molecular target: T7, Corticotropin-releasing factor receptor 2/Corticotropin-releasing factor-binding protein (Homo sapiens, UniProt P24387+Q13324); experiment: Dose Response confirmation of uHTS hits for small molecule antagonists of the CRF-binding protein and CRF-R2 receptor complex.; format: functional; conditions: read-out: IC50_Mean
T7 sequence (Q13324 whole entry): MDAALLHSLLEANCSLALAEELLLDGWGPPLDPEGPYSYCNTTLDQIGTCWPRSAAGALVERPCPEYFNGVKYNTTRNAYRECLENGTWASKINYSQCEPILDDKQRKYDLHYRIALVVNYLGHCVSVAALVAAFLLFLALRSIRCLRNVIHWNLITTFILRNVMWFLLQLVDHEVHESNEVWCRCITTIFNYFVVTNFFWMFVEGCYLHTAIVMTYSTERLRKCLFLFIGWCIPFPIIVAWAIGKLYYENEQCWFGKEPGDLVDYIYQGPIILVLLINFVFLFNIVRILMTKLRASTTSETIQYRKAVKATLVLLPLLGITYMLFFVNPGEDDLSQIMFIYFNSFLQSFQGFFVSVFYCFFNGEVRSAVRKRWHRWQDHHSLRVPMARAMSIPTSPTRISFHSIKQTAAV
T7 sequence (P24387 whole entry): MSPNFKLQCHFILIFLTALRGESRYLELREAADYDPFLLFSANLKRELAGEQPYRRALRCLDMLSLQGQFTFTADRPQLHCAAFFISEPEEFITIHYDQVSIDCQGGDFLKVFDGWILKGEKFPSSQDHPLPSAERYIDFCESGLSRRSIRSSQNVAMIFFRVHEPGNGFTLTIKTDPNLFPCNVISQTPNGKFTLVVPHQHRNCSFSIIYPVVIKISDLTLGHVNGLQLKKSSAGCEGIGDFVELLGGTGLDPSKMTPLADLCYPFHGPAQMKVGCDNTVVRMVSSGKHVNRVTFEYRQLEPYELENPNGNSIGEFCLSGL

[13] = molecular target: T7, Corticotropin-releasing factor receptor 2/Corticotropin-releasing factor-binding protein; experiment: activators of CRF receptor 2 with binding protein – uHTS hits, confirmation (AID 602473); format: functional; conditions: read-out: EC50_Mean

T4 sequence (P11940 whole entry, the tested form may be a part): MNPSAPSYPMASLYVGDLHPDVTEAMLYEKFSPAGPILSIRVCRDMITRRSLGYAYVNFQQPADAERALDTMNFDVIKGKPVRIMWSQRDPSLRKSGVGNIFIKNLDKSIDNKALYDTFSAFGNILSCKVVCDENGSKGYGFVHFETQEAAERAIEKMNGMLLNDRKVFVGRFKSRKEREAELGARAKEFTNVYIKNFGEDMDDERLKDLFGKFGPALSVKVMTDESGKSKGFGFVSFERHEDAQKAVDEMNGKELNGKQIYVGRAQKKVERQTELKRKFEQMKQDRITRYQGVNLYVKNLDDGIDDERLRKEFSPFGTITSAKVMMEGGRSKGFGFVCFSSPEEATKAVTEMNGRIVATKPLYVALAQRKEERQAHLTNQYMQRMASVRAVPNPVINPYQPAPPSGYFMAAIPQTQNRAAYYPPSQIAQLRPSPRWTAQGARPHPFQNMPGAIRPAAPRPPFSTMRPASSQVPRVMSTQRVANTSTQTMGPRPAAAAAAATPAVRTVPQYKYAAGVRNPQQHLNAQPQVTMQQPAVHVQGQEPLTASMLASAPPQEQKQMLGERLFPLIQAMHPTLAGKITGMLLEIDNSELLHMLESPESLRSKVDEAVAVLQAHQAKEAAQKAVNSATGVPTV

SMILES: O=C(c1ccc(Br)o1)N1CCN(c2ccc3nnc(-c4ccccc4)n3n2)CC1
- IC50 (cells): 48.6 µM (active)

SMILES: NS(=O)(=O)c1ccc(CCNCc2ccccc2OCc2ccc(Cl)cc2)cc1
- EC50 [1]: 6.68 µM (active)
- IC50 [2]: 11.2 µM (active)

SMILES: CCCCCC(=O)NNC(=S)NC(=O)c1ccc([N+](=O)[O-])cc1
- IC50 (Leucine aminopeptidase): 49.2 µM (active)
- CC50 [3]: > 40 µM (active)
- IC50 [4]: > 66 µM (inactive)
- IC50 [5]: > 66 µM (inactive)

SMILES: C=CCSc1nc2c(c(=O)[nH]c(=O)n2C)n1C/C=C(/C)Cl
- CC50 [6]: 37.2 µM (active)
- EC50 [1]: 2.37 µM (active)

SMILES: CC(C)OCCCNC(=O)c1c(N)n(/N=C/c2ccccn2)c2nc3ccccc3nc12
- IC50 [7]: > 80 µM (inactive)

SMILES: O=C(c1cccc(N2C(=O)C3C4C=CC(C4)C3C2=O)c1)N1CCN(c2ccccc2Cl)CC1 (configuration not stated)
- CC50 [6]: > 50 µM (active)
- IC50 (cells): 32.6 µM (active)

SMILES: O=C(CCCN1C(=O)S/C(=C\c2ccccc2)C1=O)NNC(=O)c1ccccc1O
- EC50 [8]: < 0.1 µM (active)
- EC50 [9]: 15.2 µM (active)
- EC50 [10]: 0.157 µM (active)
- AC50 [11]: 33.9 µM (active)
- IC50 [7]: > 80 µM (inactive)

SMILES: Oc1[nH]c2ccccc2c1N=Nc1nc(Nc2ccccc2)nc(N2CCOCC2)n1
- IC50 [7]: 50.1 µM (inactive)

SMILES: CN(C)C(CNC(=O)c1oc2ccccc2c1CSc1nc[nH]n1)c1ccco1 (configuration not stated)
- EC50 [1]: 8.41 µM (active)

SMILES: CCC(CO)Oc1cc(NCc2ccccc2O)c2ncn(C(C)C)c2c1 (configuration not stated)
- IC50 [7]: > 80 µM (inactive)

SMILES: Cc1ccc(NC(=O)CNc2ccccc2CN(C)C2CCCCC2)cc1
- EC50 [1]: 2.99 µM (active)

SMILES: Cc1nc2cc(-c3ccc(Cl)cc3)nn2c(C)c1CCC(=O)NCc1ccco1
- IC50 [7]: > 80 µM (inactive)

SMILES: Cc1ccccc1NC(=O)C1CCCN1S(=O)(=O)c1cccc2cccnc12 (configuration not stated)
- CC50 [6]: > 50 µM (active)
- IC50 (cells): 19.5 µM (active)

SMILES: O=C(O)c1cccc(COc2cccc3ccccc23)c1
- CC50 [6]: 31.1 µM (active)
- IC50 (cells): 28.2 µM (active)

SMILES: Cc1cc(=O)[nH]c(SCC(=O)Nc2ccc(Br)cc2)c1C#N
- IC50 (Leucine aminopeptidase): 1.48 µM (active)
- EC50 (Streptokinase A): > 150 µM (not active)
- IC50 [12]: 2.16 µM (active)
- EC50 [13]: 8.83 µM (active)

SMILES: O=C(/C=C/c1ccccc1)Nc1sc2c(c1C(=O)O)CCC2
- CC50 [6]: 19.7 µM (active)
- IC50 (cells): 26.1 µM (active)
